What was measured:
[1] = molecular target: T1, HD (Gallus gallus, UniProt Q05917); test: ITC, titration with POPG LUVs; assay type: binding; conditions: read-out: Kd^apparent
T1 construct: gene EN2; homeodomain alone (200-259); E. coli SE1, His6-Cherry fusion removed by PreScission, GPAS left at N-terminus
T1 sequence (Q05917 200-259): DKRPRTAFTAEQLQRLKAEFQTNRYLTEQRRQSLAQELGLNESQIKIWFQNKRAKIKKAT
Text: ITC, titration with POPG LUVs on HD

[2] = molecular target: T2, ExtHD (Gallus gallus, UniProt Q05917); test: ITC, titration with POPG LUVs; assay type: binding; conditions: read-out: Kd^apparent
T2 construct: gene EN2; homeodomain plus 17-residue basic N-terminal extension (183-259); E. coli SE1, His6-Cherry fusion removed by PreScission, GPAS left at N-terminus (GPCAS with biotin-PEG2-maleimide for biotinylated form)
T2 sequence (Q05917 183-259): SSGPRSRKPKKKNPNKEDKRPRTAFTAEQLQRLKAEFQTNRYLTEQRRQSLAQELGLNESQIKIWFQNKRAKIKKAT
Text: ITC, titration with POPG LUVs on ExtHD

- Kd [1]: 7.5 ± 2.5 µM
- Kd [2]: 6.8 ± 2.3 µM
Compound: CCCCCCCC/C=C\CCCCCCCC(=O)O[C@H](COC(=O)CCCCCCCCCCCCCCC)COP(=O)(O)OCC(O)CO (mixture of isomers) [POPG, 1-palmitoyl-2-oleoyl-sn-glycero-3-phospho-(1’-rac-glycerol)]
